pIC50: −log10 of the molar value. Where two headings read alike, the source gives them in different places.
What was measured:
[1] = tested on: TNBS induced colitis model rat; experiment: Therapeutic effect in TNBS induced colitis model rat (intestinal permeability of FITC); type: in vivo; settings: po, 72 h, SD rats, mean, read-out: Inhibition (%): suppressive rate on the intestinal permeability; for inhibition in vivo at 3 mg/kg: 3 mg/kg orally once a day for 3 days
Procedure: SD rats: 8-weeks-old male SLC (Japan SLC) were used. Under pentobarbital anesthesia, 300 μL of TNBS (28 mg/mL) which was prepared by 50% ethanol was administered at a point 8 cm from anus in large intestine to cause inflammation. To the solvent-treated group was administrated 300 μL of 50% ethanol. Animals were fasted for 48 hours prior to administration of TNBS. Test compounds (3 mg/kg or 10 mg/kg) prepared by 0.05% methylcellulose solution were orally administered once a day from next day, and it was administered for a total of 3 days. After administering for 3 days, 50 mg/kg FITC was orally administered at 4 hours after administration. Blood samples were collected from jugular vein under isoflurane anesthesia after 4 hours. The serum was centrifuged and fluorescence intensity was detected by PHERAstar FSX (BMG Labtech) to measure the concentration of FITC permeating into circulating blood through the mesentery. The suppressive rate on the intestinal permeability of test compounds was calculated based on the value of test compounds-free group as 0 and the value of TNBS-untreated group as 100.

[2] = Rat PK study: concentration of compounds in large intestine tissue and plasma; type: in vivo; settings: male, 3 mg/kg oral, non-fasted SD rats; for Kp at 8 h: large intestine tissue / plasma, read-out: C/P: ratio of Colon and Plasma; for Cmax: read-out: Cmax: maximum plasma concentration
Procedure: Test compounds (3 mg/kg/5 mL) prepared by 0.05% methylcellulose were orally administered to non-fasted rats (SD, 8-weeks-old, male, Japan SLC). Blood samples were collected from jugular vein at 0.25, 0.5, 1, 2, 4, 6 and 8 hours after the administration. Laparotomy was performed under isoflurane anesthesia and large intestine was isolated. Collected distal large intestine (about 5 cm) was cut open, and then the large intestine was washed with saline on a dish. After washing, the large intestine was minced by a small scissors. About 150 mg thereof was moved to tube. To the tube was added 100 μL of saline, the mixture was homogenized using shake master (1000 rpm×30 minutes). Samples were prepared by the addition with quadruple volume of saline as final volume. The concentrations of the test compound in large intestine tissue and plasma were measured through a quantitative analysis using liquid chromatography-mass spectrometry (LC/MS).
• Cmax: maximum plasma concentration of test compounds in the case of oral administration (ng/mL) • AUC: area under the plasma test compound concentration-time curve (ng*min/mL) • Plasma: plasma test compound concentration after 8 hours (ng/ml) • Colon: concentrations of the test compound in large intestine tissue after 8 hours (ng/g) • C/P: ratio of the above Colon and Plasma

human PHD2184-418 = human PHD2184-418 (Homo sapiens (Human), UniProt Q9GZT9); experiment: PHD2 inhibitory test (fluorescence polarization); type: binding; settings: human PHD2184-418, FITC-labeled HIF-1α556-574 substrate, 2 μM 2-oxoglutarate, 37° C. 60 minutes
Procedure: (1) Expression and Preparation of Human PHD2184-418
Human PHD2184-418 containing amino acid residues 184 to 418 of the protein represented by CAC42509 (GenBank accession ID) was expressed and prepared by the following method.
An expression construct of human PHD2184-418 containing N-terminal histidine tag was introduced into pET-30a (+) vector, and the sequence was confirmed. This vector was introduced into BL21 (DE3) strain and cultured at 37° C. in LB medium containing antibiotics. After culturing, a cell lysis solution was added to the cells, and then the cells were disrupted by sonication. The disrupted suspension was centrifuged and the supernatant was purified by Ni column to give human PHD2184-418.
Human HIF-1α556-574 (FITC-labeled HIF-1α556-574), containing N-terminal FITC-Ahx, containing amino acid residues 556 to 574 (partial peptide) of HIF-1α was used as a substrate. Using FITC-labeled HIF-1α556-574, the competitive inhibition between 2-oxoglutarate and test compounds (PHD inhibitor) was evaluated based on the change in fluorescence polarization by the following method.
An enzyme (human PHD2184-418) and the substrate were diluted with an assay buffer (pH 7.4) containing 10 mM HEPES, 150 mM NaCl, 10 μM MnCl2-4H2O, 2 μM 2-oxoglutarate and 0.05% Tween-20. Test compounds were diluted with DMSO. Test compounds and human PHD2184-418 was added to the 384-well plate (Corning, black, opaque bottom) in advance. The reaction was started by the addition of FITC-labeled HIF-1α556-574. After incubating at 37° C. for 60 minutes, fluorescence polarization (excitation wavelength: 470 nm, fluorescence wavelength: 530 nm) was measured by PHERAstar FSX (BMG Labtech). Fluorescence polarization of each well was measured, and human PHD2 binding inhibitory activity of test compounds was calculated based on the value of test compound-free group.

[3] = Rat PK study: concentration of compounds in large intestine tissue and plasma; type: in vivo; settings: male, plasma, 3 mg/kg oral, non-fasted SD rats, read-out: AUC: area under the plasma test compound concentration-time curve (converted)
[4] = large intestine tissue (distal, colon), read-out: Colon: concentration in large intestine tissue after 8 hours
[5] = plasma, read-out: Plasma: plasma test compound concentration after 8 hours

Chain of human PHD2184-418 (Q9GZT9 184-418): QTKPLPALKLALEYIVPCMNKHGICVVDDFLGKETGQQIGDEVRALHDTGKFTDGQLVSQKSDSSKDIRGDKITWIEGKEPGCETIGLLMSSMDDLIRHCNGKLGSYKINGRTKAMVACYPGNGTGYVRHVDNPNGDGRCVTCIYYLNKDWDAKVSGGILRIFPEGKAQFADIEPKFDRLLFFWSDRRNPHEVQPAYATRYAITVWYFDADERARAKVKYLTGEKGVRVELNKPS

| concentration at 8 h [2, 4] [ng/g] | Kp at 8 h [2] | concentration at 8 h [2, 5] [ng/mL] | Cmax ([2]; plasma) [ng/mL] | pIC50 (human PHD2184-418) | AUC [3] [ng·h/mL] | Compound | inhibition in vivo at 3 mg/kg [1] [%] | inhibition in vivo at 10 mg/kg ([1]; 10 mg/kg orally once a day for 3 days) [%] |
| --- | --- | --- | --- | --- | --- | --- | --- | --- |
| 11 | > 11 | < 1 | < 1 | 6.23 |  | COc1ccc(Cn2cnc3c(=O)[nH]c(-n4cc(C(=O)O)cn4)nc32)cc1 [Example 35, 1-(9-(4-Methoxybenzyl)-6-oxo-6,9-dihydro-1H-purin-2-yl)-1H-pyrazole-4-carboxylic acid] | 81 |  |
| 646 | > 646 | < 1 | < 1 | 6.43 |  | O=C(O)c1cnn(-c2nc3c(ncn3Cc3ccc(O)cc3)c(=O)[nH]2)c1 [Example 29, 1-(9-(4-Hydroxybenzyl)-6-oxo-6,9-dihydro-1H-purin-2-yl)-1H-pyrazole-4-carboxylic acid] | 86 |  |
| 109 | 36 | 3 | 11 | 7.05 | 46.3 | O=C(O)c1cnn(-c2nc3ncn(Cc4ccc(-c5ccccc5)cc4)c3c(=O)[nH]2)c1 [Example 1, 1-(7-([1,1′-Biphenyl]-4-ylmethyl)-6-oxo-6,7-dihydro-1H-purin-2-yl)-1H-pyrazole-4-carboxylic acid] |  | 54 |
| 188 | > 188 | < 1 | 3 | 6.19 | 0.833 | O=C(O)c1cnn(-c2nc3ncn(COCc4ccccc4)c3c(=O)[nH]2)c1 [Example 2, 1-(7-((Benzyloxy)methyl)-6-oxo-6,7-dihydro-1H-purin-2-yl)-1H-pyrazole-4-carboxylic acid] | 51 |  |
| 94 | 47 | 2 | 6 | 6.28 | 29.2 | CS(=O)(=O)c1ccc(Cn2cnc3nc(-n4cc(C(=O)O)cn4)[nH]c(=O)c32)cc1 [Example 4, 1-(7-(4-(Methylsulfonyl)benzyl)-6-oxo-6,7-dihydro-1H-purin-2-yl)-1H-pyrazole-4-carboxylic acid] | 66 |  |
| 87 | > 87 | < 1 | 6 | 6.19 | 3.27 | O=C(O)c1cnn(-c2nc3ncn(Cc4ccc(O)cc4)c3c(=O)[nH]2)c1 [Example 3, 1-(7-(4-Hydroxybenzyl)-6-oxo-6,7-dihydro-1H-purin-2-yl)-1H-pyrazole-4-carboxylic acid] | 93 |  |
| 323 | > 323 | 1 | 4 | 6.38 | 12.9 | Cl.O=C(O)c1cnn(-c2nc3ncn(Cc4ccc(OCCN5CCOCC5)cc4)c3c(=O)[nH]2)c1 [Example 75, 1-(7-(4-(2-Morpholinoethoxy)benzyl)-6-oxo-6,7-dihydro-1H-purin-2-yl)-1H-pyrazole-4-carboxylic acid hydrochloride] | 80 |  |
|  |  |  | 10 |  | 18.2 | COc1ccc(Cn2cnc3nc(-n4cc(C(=O)O)cn4)[nH]c(=O)c32)cc1 [Example 11, 1-(7-(4-Methoxybenzyl)-6-oxo-6,7-dihydro-1H-purin-2-yl)-1H-pyrazole-4-carboxylic acid] | 83 |  |
| 67 | 34 | 2 | 16 | 6.21 | 49.9 | O=C(O)c1ccc(Cn2cnc3nc(-n4cc(C(=O)O)cn4)[nH]c(=O)c32)cc1 [Example 12, 1-(7-(4-Carboxybenzyl)-6-oxo-6,7-dihydro-1H-purin-2-yl)-1H-pyrazole-4-carboxylic acid] | 78 |  |

Source: patent US12157739B2, “Hypoxanthine compounds” (KISSEI PHARMACEUTICAL CO., LTD., priority 2018, dated 2024)
